≈ marks a conversion by molar mass, not a printed value. Read-outs that look alike come from different tables or passages of the source. Residues, ends and D or L forms follow the SMILES beside them.
Experiments:
[1] = system: S. aureus 3126(R) (MRSA 3126); format: cell-based, Staphylococcus aureus; conditions: multidrug-resistant strain; 1% peptone media, 16 h at 37 °C
[2] = system: Acinetobacter baumannii KCTC 2508; format: cell-based
Source text: (§1) Four Gram-negative bacteria species (Escherichia coli KCTC 1682, Acinetobacter baumannii KCTC 2508, Pseudomonas aeruginosa KCTC 1637 and Salmonella typhimurium KCTC 1926) and three Gram-positive bacteria species (Staphylococcus aureus KCTC 1621, Bacillus subtilis KCTC 3028 and Staphylococcus epidermidis KCTC 1917) were procured from the Korean Collection for Type Cultures (KCTC). Multi-drug-resistant Gram-negative bacteria (Salmonella typhimurium CCARM 8003 and 8007, Escherichia coli CCARM 1229 and 1238, Pseudomonas aeruginosa CCARM 2002 and 2095 and Acinetobacter baumannii CCARM 12035 and 12036) were obtained from the Culture Collection of Antibiotic-Resistant Microbes (CCARM). To determine MICs, bacteria were cultured in Luria-Bertani (LB) medium for overnight at 37 °C. An aliquot of the culture was incubated in 1% peptone media at 37 °C until mid-log phase. 100 μl of serial 2-fold diluted peptides were treated in 96 well plates and added to 100 μl of 2 × 10^6 CFU/ml bacterial suspensions in 1% peptone media for 16 h at 37 °C.

[3] = system: Salmonella typhimurium CCARM 8003 (MDRST 8003); format: cell-based; conditions: multidrug-resistant strain; 1% peptone media, 16 h at 37 °C
Source text: as §1

[4] = system: Acinetobacter baumannii CCARM 12036 (MDRAB 12036); format: cell-based; conditions: multidrug-resistant strain; 1% peptone media, 16 h at 37 °C
Source text: as §1

[5] = system: Escherichia coli KCTC 1682; format: cell-based
Source text: as §1

[6] = system: Pseudomonas aeruginosa CCARM 2002 (MDRPA 2002); format: cell-based; conditions: multidrug-resistant strain; 1% peptone media, 16 h at 37 °C
Source text: as §1

[7] = system: Salmonella typhimurium KCTC 1926; format: cell-based
Source text: as §1

[8] = system: Acinetobacter baumannii CCARM 12035 (MDRAB 12035); format: cell-based; conditions: multidrug-resistant strain; 1% peptone media, 16 h at 37 °C
Source text: as §1

[9] = system: Staphylococcus aureus KCTC 1621; format: cell-based
Source text: as §1

[10] = system: Gram-negative bacteria (E. coli, A. baumannii, P. aeruginosa, S. typhimurium); format: cell-based
Source text: as §1

[11] = system: Escherichia coli CCARM 1238 (MDREC 1238); format: cell-based; conditions: multidrug-resistant strain; 1% peptone media, 16 h at 37 °C
Source text: as §1

[12] = system: Staphylococcus epidermidis KCTC 1917; format: cell-based
Source text: as §1

[13] = system: Pseudomonas aeruginosa KCTC 1637; format: cell-based
Source text: as §1

[14] = system: Pseudomonas aeruginosa CCARM 2095 (MDRPA 2095); format: cell-based; conditions: multidrug-resistant strain; 1% peptone media, 16 h at 37 °C
Source text: as §1

[15] = system: Gram-positive bacteria (S. aureus, B. subtilis, S. epidermidis); format: cell-based
Source text: as §1

[16] = system: Bacillus subtilis KCTC 3028; format: cell-based
Source text: as §1

[17] = system: Escherichia coli CCARM 1229 (MDREC 1229); format: cell-based; conditions: multidrug-resistant strain; 1% peptone media, 16 h at 37 °C
Source text: as §1

[18] = system: Salmonella typhimurium CCARM 8007 (MDRST 8007); format: cell-based; conditions: multidrug-resistant strain; 1% peptone media, 16 h at 37 °C
Source text: as §1

[19] = system: S. aureus 3089(R) (MRSA 3089); format: cell-based, Staphylococcus aureus; conditions: multidrug-resistant strain; 1% peptone media, 16 h at 37 °C
[20] = system: S. aureus 3108(R) (MRSA 3108); format: cell-based, Staphylococcus aureus; conditions: multidrug-resistant strain; 1% peptone media, 16 h at 37 °C
[21] = system: human red blood cells (hRBCs); test: Haemolytic activity; format: cell-based; conditions: red cells of human, 1 h
Protocol: Peptide-induced lysis of human red blood cells (hRBCs) was determined as follows. Fresh hRBCs were washed 2–3 times with phosphate-buffered saline (PBS) by centrifugation for 5 min at 2500 rpm at 4 °C. Peptides in PBS were incubated with 4% (v/v) hRBCs for 1 h at 37 °C. Samples were then centrifuged for 5 min at 1000 × g. The absorbance of the supernatant at 405 nm was used as a measure of haemolysis. As a positive control, 100% haemolysis was obtained by treating hRBCs with 0.1% Triton X-100.

## CC[C@H](C)[C@H](NC(=O)CN)C(=O)NCC(=O)N[C@@H](C)C(=O)N[C@H](C(=O)N[C@@H](CC(C)C)C(=O)N[C@@H](CCCCN)C(=O)N[C@H](C(=O)N[C@@H](CC(C)C)C(=O)N[C@H](C(=O)N[C@H](C(=O)NCC(=O)N[C@@H](CC(C)C)C(=O)N1CCC[C@H]1C(=O)N[C@@H](C)C(=O)N[C@@H](CC(C)C)C(=O)N[C@H](C(=O)N[C@@H](CO)C(=O)N[C@@H](Cc1c[nH]c2ccccc12)C(=O)N[C@H](C(=O)N[C@@H](CCCCN)C(=O)N[C@@H](CCCNC(=N)N)C(=O)N[C@@H](CCCCN)C(=O)N[C@@H](CCCNC(=N)N)C(=O)N[C@@H](CCC(N)=O)C(=O)N[C@@H](CCC(N)=O)C(N)=O)[C@@H](C)CC)[C@@H](C)CC)[C@@H](C)O)[C@@H](C)O)C(C)C)C(C)C [Melittin, reference compound]
[1]
  MIC, MRSA 3126: 2 µM (≈ 5.69 µg/mL)
[2]; standard strain KCTC 2508, 1% peptone media, 16 h at 37 °C, three independent experiments in triplicate, SD 14.0%
  MIC, A. baumannii: 4 µM (≈ 11.4 µg/mL)
[3]
  MIC, MDRST 8003: 8 µM (≈ 22.8 µg/mL)
[4]
  MIC, MDRAB 12036: 4 µM (≈ 11.4 µg/mL)
[5]; standard strain KCTC 1682, 2-fold dilutions, 1% peptone media, 2 × 10^6 CFU/ml suspension, 16 h at 37 °C, three independent experiments in triplicate, SD 14.0%
  MIC, E. coli: 4 µM (≈ 11.4 µg/mL)
[6]
  MIC, MDRPA 2002: 2 µM (≈ 5.69 µg/mL)
[7]; standard strain KCTC 1926, 1% peptone media, 16 h at 37 °C, three independent experiments in triplicate, SD 14.0%
  MIC, S. typhimurium: 8 µM (≈ 22.8 µg/mL)
[8]
  MIC, MDRAB 12035: 4 µM (≈ 11.4 µg/mL)
[9]; standard strain KCTC 1621, 1% peptone media, 16 h at 37 °C, three independent experiments in triplicate, SD 14.0%
  MIC, S. aureus: 4 µM (≈ 11.4 µg/mL)
[10]; average over the four Gram-negative standard strains
  Average MIC, Gram-negative: 5 µM
[11]
  MIC, MDREC 1238: 4 µM (≈ 11.4 µg/mL)
[12]; standard strain KCTC 1917, 1% peptone media, 16 h at 37 °C, three independent experiments in triplicate, SD 14.0%
  MIC, S. epidermidis: 2 µM (≈ 5.69 µg/mL)
[13]; standard strain KCTC 1637, 1% peptone media, 16 h at 37 °C, three independent experiments in triplicate, SD 14.0%
  MIC, P. aeruginosa: 4 µM (≈ 11.4 µg/mL)
[14]
  MIC, MDRPA 2095: 2 µM (≈ 5.69 µg/mL)
[15]; average over the three Gram-positive standard strains
  Average MIC, Gram-positive: 3.33 µM
[16]; standard strain KCTC 3028, 1% peptone media, 16 h at 37 °C, three independent experiments in triplicate, SD 14.0%
  MIC, B. subtilis: 4 µM (≈ 11.4 µg/mL)
[17]
  MIC, MDREC 1229: 4 µM (≈ 11.4 µg/mL)
[18]
  MIC, MDRST 8007: 8 µM (≈ 22.8 µg/mL)
[19]
  MIC, MRSA 3089: 2 µM (≈ 5.69 µg/mL)
[20]
  MIC, MRSA 3108: 2 µM (≈ 5.69 µg/mL)

## CC[C@H](C)[C@H](NC(=O)CNC(=O)[C@H](CCC(N)=O)NC(=O)[C@H](Cc1ccccc1)NC(=O)[C@@H](NC(=O)[C@H](CCCCN)NC(=O)[C@H](CCCCN)NC(=O)[C@H](CC(C)C)NC(=O)[C@H](C)NC(=O)[C@H](CC(N)=O)NC(=O)[C@H](CC(C)C)NC(=O)CN)C(C)C)C(=O)N[C@@H](Cc1c[nH]cn1)C(=O)N[C@@H](CCC(=O)O)C(=O)N[C@@H](C)C(=O)N[C@H](C(=O)N[C@@H](CCCCN)C(=O)N[C@@H](CCCCN)C(=O)N[C@H](C(=O)N[C@@H](CC(N)=O)C(=O)N[C@@H](CC(N)=O)C(=O)N[C@@H](Cc1c[nH]cn1)C(=O)N[C@H](C(=O)N[C@@H](CCC(N)=O)C(=O)O)C(C)C)[C@@H](C)CC)[C@@H](C)CC [Ps-K18] (H-GLNALKKVFQGIHEAIKKINNHVQ-OH)
[1]
  MIC, MRSA 3126: 16 µM (≈ 43.2 µg/mL)
[2]; KCTC 2508, 16 h
  MIC, A. baumannii: 2 µM (≈ 5.4 µg/mL)
[3]
  MIC, MDRST 8003: 4 µM (≈ 10.8 µg/mL)
[4]
  MIC, MDRAB 12036: 4 µM (≈ 10.8 µg/mL)
[5]; KCTC 1682, 16 h
  MIC, E. coli: 2 µM (≈ 5.4 µg/mL)
[6]
  MIC, MDRPA 2002: 2 µM (≈ 5.4 µg/mL)
[7]; KCTC 1926, 16 h
  MIC, S. typhimurium: 4 µM (≈ 10.8 µg/mL)
[8]
  MIC, MDRAB 12035: 4 µM (≈ 10.8 µg/mL)
[9]; KCTC 1621, 16 h
  MIC, S. aureus: 16 µM (≈ 43.2 µg/mL)
[10]; 16 h
  Average MIC, Gram-negative: 2.5 µM
[11]
  MIC, MDREC 1238: 2 µM (≈ 5.4 µg/mL)
[12]; KCTC 1917, 16 h
  MIC, S. epidermidis: 8 µM (≈ 21.6 µg/mL)
[13]; KCTC 1637, 16 h
  MIC, P. aeruginosa: 2 µM (≈ 5.4 µg/mL)
[14]
  MIC, MDRPA 2095: 2 µM (≈ 5.4 µg/mL)
[15]; 16 h
  Average MIC, Gram-positive: 10.67 µM
[16]; KCTC 3028, 16 h
  MIC, B. subtilis: 8 µM (≈ 21.6 µg/mL)
[17]
  MIC, MDREC 1229: 4 µM (≈ 10.8 µg/mL)
[18]
  MIC, MDRST 8007: 4 µM (≈ 10.8 µg/mL)
[21]
  MHC (minimal peptide concentration that produces haemolysis): 100 µM
[21]; 100
  haemolysis at 100 μM: 0.5%
[19]
  MIC, MRSA 3089: 16 µM (≈ 43.2 µg/mL)
[20]
  MIC, MRSA 3108: 32 µM (≈ 86.4 µg/mL)

— paper PMC5431190, “Investigation of cationicity and structure of pseudin-2 analogues for enhanced bacterial selectivity and anti-inflammatory activity” (Scientific Reports, 2017)
